From patent US8524744B2, “Arylamine ketones, their preparation methods, the pharmaceutical composition containing them and their use” (Institute of Mataria Medica, Chinese Academy of Medical …, priority 2004, dated 2013)
Counter-ions that a name gives are not always drawn.

What was measured:
[1] = system: polymorphonuclear leucocytes from rat pleural cavity; assay: release of β-glucuronidase by polymorphonuclear leucocytes from rat pleural cavity in vitro (PAF as irritant); type: cell-based
Procedure: 1% carrageenan was injected into the right pleural cavity of Wistar rat to induce polymorphonuclear leucocytes. The cells was suspended in Dulbecoo's buffer at the concentration of 2.5×10^6 cells·ml^1. The fluid containing the compound or solvent and 250 μl of cells suspension were added in test tube and incubated in 37° C. waterbath for 15 min. Then 2.5 μl of cytochalasin B (1×10^−3 mol·L^−1) was added and the reaction was continued for 5 min. Then 2.5 μl of PAF (1×10^−4 mol·L^−1) was added and for another 5 min. The test tubes were put into ice bath to stop the reaction. The supernatant was isolated and used as the β-glucuronidase release fluid. 25 μl of the enzyme fluid, 25 μl of phenolphthalein-glucuronic acid (2.5 mmol·L^−1) and 100 μl of acetic acid buffer (0.1 mol·L^−1) were added into each well of 96-well plate which was placed into incubater and kept at 37° C.3 for 18 hr. 150 μl of NaOH (0.3 mol·L^−1) was added in each well to cease the reaction and the optical density was read at 550 nm.

[2] = Dose 1 × 10^−5 mol · L^−1, Irritant 1 × 10^−6 mol · L^−1
[3] = Dose 2 × 10^−6 mol · L^−1, Irritant 1 × 10^−7 mol · L^−1
[4] = Dose 1 × 10^−5 mol · L^−1, Irritant 1 × 10^−7 mol · L^−1
[5] = Dose 1 × 10^−5 mol · L^−1, Irritant 2 × 10^−7 mol · L^−1
[6] = Dose 1 × 10^−4 mol · L^−1, Irritant 2 × 10^−7 mol · L^−1

Compound | Inhibition (%) of β-glucuronidase release [1, 2] [%] | further results
5-[(4-Ethoxycarbonyl)piperidyl]-1-(3,4-dimethoxyphenyl)-1-penten-3-one hydrochloride [Compound 4] | 28.05 | 
5-[(N4-Benzyl)piperazyl]-1-(3,4-dimethoxyphenyl)-1-penten-3-one hydrochloride [Compound 48] | 25.87 | 
5-[(N4-Ethoxycarbonyl)piperazyl]-1-(4-trifluoromethylphenyl)-1-penten-3-one hydrochloride [Compound 29] | 22.22 | 
5-[N4-(3,4-Methylenedioxy(benzyl)piperazyl)]-1-(3,4,5-trimethoxy-phenyl)-1-penten-3-one hydrochloride [Compound 54] | 65.88 | 
CCOC(=O)C1CCN(CCC(=O)/C=C/c2ccc(Cl)cc2)CC1 (as salt: hydrochloride) [Compound 3, 5-[(4-Ethoxycarbonyl)piperidyl]-1-(4-chlorophenyl)-1-penten-3-one hydrochloride] |  | melting point: 172 to 174 °C
CCOC(=O)C1CCN(CCC(=O)C=Cc2ccc(O)cc2)CC1.Cl [Compound 1, 5-[(4-Ethoxycarbonyl)piperidyl]-1-(4-hydroxyphenyl)-1-penten-3-one hydrochloride] |  | Inhibition (%) of β-glucuronidase release ([1]; Dose 1 × 10^−5 mol · L^−1, Irritant 5 × 10^−7 mol · L^−1): 97.87%
CCOC(=O)C1CCN(CCC(=O)C=Cc2ccc(C#N)cc2)CC1.Cl [Compound 2, 5-[(4-Ethoxycarbonyl)piperidyl]-1-(4-cyanophenyl)-1-penten-3-one hydrochloride] |  | Inhibition (%) of β-glucuronidase release [1, 3]: 126.36%
CCOC(=O)C1CCN(CCC(=O)C=Cc2ccc(OCC)c(OC)c2)CC1.Cl [Compound 5, 5-[(4-Ethoxycarbonyl)piperidyl]-1-(3-methoxy-4-ethoxyphenyl)-1-penten-3-one hydrochloride] | 45.34 | 
CCOC(=O)C1CCN(CCC(=O)C=Cc2cc(OC)c(OC)c(OC)c2)CC1.Cl [Compound 6, 5-[(4-Ethoxycarbonyl)piperidyl]-1-(3,4,5-trimethoxyphenyl)-1-penten-3-one hydrochloride] | 39.53 | 
CCOC(=O)C1CCN(CCC(=O)C=Cc2ccc(O)c(OC)c2)CC1.Cl [Compound 8, 5-[(4-Ethoxycarbonyl)piperidyl]-1-(3-methoxy-4-hydroxyphenyl)-1-penten-3-one hydrochloride] |  | Inhibition (%) of β-glucuronidase release [1, 4]: 158.42%
CCOC(=O)C1CCN(CCC(=O)C=Cc2ccc(Cl)cc2Cl)CC1.Cl [Compound 10, 5-[(4-Ethoxycarbonyl)piperidyl]-1-(2,4-dichlorophenyl)-1-penten-3-one hydrochloride] | 51.07 | 
CCOC(=O)C1CCCN(CCC(=O)C=Cc2ccc(OC)c(OCC)c2)C1.Cl (stereo not drawn) [Compound 12, 5-[(3-Ethoxycarbonyl)piperidyl]-1-(3-ethoxy-4-methoxyphenyl)-1-penten-3-one hydrochloride] |  | Inhibition (%) of β-glucuronidase release [1, 4]: 181.48%
CCOC(=O)C1CCCN(CCC(=O)C=Cc2ccc(Cl)cc2)C1.Cl (stereo not drawn) [Compound 13, 5-[(3-Ethoxycarbonyl)piperidyl]-1-(4-chloro)phenyl-1-penten-3-one hydrochloride] | 20.56 | 
CCOC(=O)C1CCCN(CCC(=O)C=Cc2ccc(OC)c(O)c2)C1.Cl (stereo not drawn) [Compound 14, 5-[(3-Ethoxycarbonyl)piperidyl]-1-(3-hydroxy-4-methoxyphenyl)-1-penten-3-one hydrochloride] | 36.65 | 
CCOC(=O)C1CCCN(CCC(=O)C=Cc2ccc3c(c2)OCO3)C1.Cl (stereo not drawn) [Compound 15, 5-[(3-Ethoxycarbonyl)piperidyl]-1-(3,4-methylenedioxyphenyl)-1-penten-3-one hydrochloride] |  | Inhibition (%) of β-glucuronidase release [1, 4]: 141.17%
Cl.O=C(C=Cc1ccc(F)cc1)CCN1CCC(Cc2ccccc2)CC1 [Compound 17, 5-[(4-Benzyl)piperidyl]-1-(4-fluorophenyl)-1-penten-3-one hydrochloride] | 37.64 | 
Cc1ccc(C=CC(=O)CCN2CCC(Cc3ccccc3)CC2)cc1.Cl [Compound 19, 5-[(4-benzyl)piperidyl]-1-(4-methylphenyl)-1-penten-3-one hydrochloride] |  | Inhibition (%) of β-glucuronidase release [1, 5]: 79.01%
CCCCOc1ccc(C=CC(=O)CCN2CCC(Cc3ccccc3)CC2)cc1.Cl [Compound 22, 5-[(4-Benzyl)piperidyl]-1-(4-butoxyphenyl)-1-penten-3-one hydrochloride] | 69.00 | 

Compound | Inhibition (%) of β-glucuronidase release [1, 2] [%] | further results
CCCOc1ccc(C=CC(=O)CCN2CCC(Cc3ccccc3)CC2)cc1.Cl [Compound 22b, 5-[(4-Benzyl)piperidyl]-1-(4-propoxyphenyl)-1-penten-3-one hydrochloride] | 41.79 | 
Cl.O=C(C=Cc1ccc(Cl)cc1Cl)CCN1CCC(Cc2ccccc2)CC1 [Compound 23, 5-[(4-Benzyl)piperidyl]-1-(2,4-dichlorophenyl)-1-penten-3-one hydrochloride] | 32.27 | 
CCOC(=O)N1CCN(CCC(=O)C=Cc2ccc(O)cc2)CC1.Cl [Compound 24, 5-[(N4-Ethoxycarbonyl)piperazyl]-1-(4-hydroxyphenyl)-1-penten-3-one hydrochloride] |  | Inhibition (%) of β-glucuronidase release [1, 4]: 120.85%
CCOC(=O)N1CCN(CCC(=O)C=Cc2cc(OC)c(OC)c(OC)c2)CC1.Cl [Compound 28, 5-[(N4-Ethoxycarbonyl)piperazyl]-1-(3,4,5-trimethoxy)phenyl-1-penten-3-one hydrochloride] |  | Inhibition (%) of β-glucuronidase release [1, 6]: 21.8%
CCOC(=O)N1CCN(CCC(=O)C=Cc2ccc(Br)cc2)CC1.Cl [Compound 30, 5-[(N4-Ethoxycarbonyl)piperazyl]-1-(4-bromophenyl)-1-penten-3-one hydrochloride] | 23.54 | 
CCOC(=O)N1CCN(CCC(=O)C=Cc2ccc3c(c2)OCO3)CC1.Cl [Compound 32, 5-[(N4-Ethoxycarbonyl)piperazyl]-1-(3,4-methylenedioxyphenyl)-1-penten-3-one hydrochloride] |  | Inhibition (%) of β-glucuronidase release [1, 6]: 46.1%
CCOC(=O)N1CCN(CCC(=O)C=Cc2ccc(C#N)cc2)CC1.Cl [Compound 34a, 5-[(N4-Ethoxycarbonyl)piperazyl]-1-(4-cyanophenyl)-1-penten-3-one hydrochloride] |  | Inhibition (%) of β-glucuronidase release [1, 3]: 121.34%
CCOC(=O)N1CCN(CCC(=O)C=Cc2ccc(OC)cc2)CC1.Cl [Compound 34d, 5-[(N4-Ethoxycarbonyl)piperazyl]-1-(4-methoxyphenyl)-1-penten-3-one hydrochloride] | 62.64 | 
CC1CN(CCC(=O)C=Cc2ccc(Br)cc2)CC(C)O1.Cl (stereo not drawn) [Compound 39b, 5-(2,6-Dimethylmorpholinyl)-1-(4-bromophenyl)-1-penten-3-one hydrochloride] | 40.48 | 
COc1ccc(C=CC(=O)CCN2CC(C)OC(C)C2)cc1.Cl (stereo not drawn) [Compound 39c, 5-(2,6-Dimethylmorpholinyl)-1-(4-methoxyphenyl)-1-penten-3-one hydrochloride] | 28.66 | 
Cl.O=C(C=Cc1ccc(F)cc1)CCN1CCN(Cc2ccccc2)CC1 [Compound 44a, 5-[(N4-Benzyl)piperazyl]-1-(4-fluorophenyl)-1-penten-3-one hydrochloride] |  | Inhibition (%) of β-glucuronidase release [1, 5]: 52.46%
Cl.O=C(C=Cc1ccc(C(F)(F)F)cc1)CCN1CCN(Cc2ccccc2)CC1 [Compound 44b, 5-[(N4-Benzyl)piperazyl]-1-(4-trifluoromethylphenyl)-1-penten-3-one hydrochloride] |  | Inhibition (%) of β-glucuronidase release [1, 5]: 57.93%
COc1ccc(C=CC(=O)CCN2CCN(Cc3ccccc3)CC2)cc1.Cl [Compound 49, 5-[(N4-Benzyl)piperazyl]-1-(4-methoxyphenyl)-1-penten-3-one hydrochloride] | 43.19 | 
Cl.O=C(C=Cc1ccc2c(c1)OCO2)CCN1CCN(Cc2ccccc2)CC1 [Compound 51, 5-[(N4-Benzyl)piperazyl]-1-(3,4-methylenedioxyphenyl)-1-penten-3-one hydrochloride] |  | Inhibition (%) of β-glucuronidase release [1, 6]: 55.1%
CN1CCN(CCC(=O)C=Cc2ccc3c(c2)OCO3)CC1.Cl [Compound 52, 5-[(N4-Methyl)piperazyl]-1-(3,4-methylenedioxyphenyl)-1-penten-3-one hydrochloride] |  | Inhibition (%) of β-glucuronidase release [1, 6]: 31.2%
CC(CN1CCN(Cc2ccc3c(c2)OCO3)CC1)C(=O)C=Cc1ccc(Cl)cc1.Cl (stereo not drawn) [Compound 53, 5-[N4-(3,4-Methylenedioxy(benzyl)piperazyl)]-1-(4-chlorophenyl)-1-penten-4-methyl-3-one hydrochloride] | 37.82 | 
CCOc1cc(C=CC(=O)CCN2CCN(Cc3ccc4c(c3)OCO4)CC2)ccc1OC.Cl [Compound 55, 5-[N4-(3,4-Methylenedioxy(benzyl)piperazyl)]-1-(3-ethoxy-4-methoxy-phenyl)-1-penten-3-one hydrochloride] | 27.24 | 
COc1ccccc1N1CCN(CCC(=O)C=Cc2ccc(Cl)cc2)CC1.Cl [Compound 58] | 21.31 | 
